pIC50: −log10 of the molar value. Read-outs that look alike come from different tables or passages of the source.
Legend:
[1] = biological target: full length recombinant Pim-3 (Homo sapiens (Human), UniProt Q86V86); experiment: Pim enzyme assay (HTRF, phosphorylation of biotinylated-BAD (S112) peptide), Pim-3; assay type: biochemical; settings: read-out: Pim3 IC50
In short: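 IC50 values were fitted with a 4-parameter logistic model to percent-of-control HTRF signal (Eu anti-phospho-BAD S112 antibody/streptavidin-APC). Reactions used full-length Pim-3 and biotin-BAD (S112) peptide, ran 1 h 30 min at RT (22 °C) in Hepes pH 7.0 buffer with BSA and DTT, and were stopped by 3 mM EDTA.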

[2] = test system: Pim-2 stably transfected U2OS human osteogenic sarcoma line; experiment: Pim cell assay U2OS (phospho-BAD normalized against total BAD), Pim-2 transfected; assay type: cell-based; settings: U2OS cells, Pim-2 transfected, read-out: U2OS Pim2_Cell_IC50
Method: (§1) The cell lines used in the assay were generated by the stable transfection of either Pim-1 or Pim-2 into the U2OS human osteogenic sarcoma line. The assay for determination of the Pim activity in the engineered U2OS cell lines measures levels of phospho-BAD normalized against total BAD protein levels. It was conducted as follows:
(§2) The adherent cells were dissociated from the flasks using non-enzymatic cell dissociation solution (Sigma #C5914). […] The cells were then incubated overnight at 37° C., 5% CO2.
(§3) In addition to the 10-point dosing curve of the test compound, DMSO alone was run as the high control.
(§4) This dilution in DMSO was then diluted again into cell growth medium. Aliquots (12 μL) of the compound diluted in growth medium were then transferred to the appropriate wells of the 96-well plates containing cells to a final DMSO concentration of 0.3%. The cell plates were then incubated with compound for 29 min at 37° C., 5% CO2.
(§5) The cell plates containing lysis buffer were then immediately stored at −70° C.
(§6) These prepared lysates were then assayed for phospho and total BAD according to the manufacturer's protocols (Meso Scale Diagnostics, Cat#K15103C-3 & #K15103D-3). The plates were read on the MSD Sector Imager 6000, and results were calculated according to the assay protocols ((% Phosphoprotein=((2×Phospho signal)/(Phospho signal+Total signal))×100)).

[3] = biological target: full length recombinant Pim-1 (Homo sapiens (Human), UniProt P11309); experiment: Pim enzyme assay (HTRF, phosphorylation of biotinylated-BAD (S112) peptide), Pim-1; assay type: biochemical; settings: Pim-1 enzyme assay; read-out: Pim_1_IC50
[4] = test system: Pim-1 stably transfected U2OS human osteogenic sarcoma line; experiment: Pim cell assay U2OS (phospho-BAD normalized against total BAD), Pim-1 transfected; assay type: cell-based
Method: as §1, §2, §3, §4, §5, §6

[5] = biological target: full length recombinant Pim-2 (Homo sapiens (Human), UniProt Q9P1W9); experiment: Pim enzyme assay (HTRF, phosphorylation of biotinylated-BAD (S112) peptide), Pim-2; assay type: biochemical; settings: Pim-2 enzyme assay; read-out: Pim2_IC50
[6] = Homo sapiens, U2OS, read-out: U2OS Pim1_Cell_IC50
[7] = Homo sapiens, U2OS, read-out: U2OS Pim1_Cell_IC50, U2OS cells, Pim-1 transfected

Chain of full length recombinant Pim-2 (Q9P1W9 whole entry): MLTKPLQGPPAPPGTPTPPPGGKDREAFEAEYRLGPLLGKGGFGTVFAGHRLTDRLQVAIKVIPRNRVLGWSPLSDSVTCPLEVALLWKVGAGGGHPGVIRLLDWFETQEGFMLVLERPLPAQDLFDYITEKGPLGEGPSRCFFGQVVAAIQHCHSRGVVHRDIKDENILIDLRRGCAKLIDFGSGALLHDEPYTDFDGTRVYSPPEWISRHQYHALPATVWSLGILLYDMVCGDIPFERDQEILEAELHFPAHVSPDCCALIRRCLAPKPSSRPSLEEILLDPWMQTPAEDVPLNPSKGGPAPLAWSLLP
Chain of full length recombinant Pim-1 (P11309 whole entry): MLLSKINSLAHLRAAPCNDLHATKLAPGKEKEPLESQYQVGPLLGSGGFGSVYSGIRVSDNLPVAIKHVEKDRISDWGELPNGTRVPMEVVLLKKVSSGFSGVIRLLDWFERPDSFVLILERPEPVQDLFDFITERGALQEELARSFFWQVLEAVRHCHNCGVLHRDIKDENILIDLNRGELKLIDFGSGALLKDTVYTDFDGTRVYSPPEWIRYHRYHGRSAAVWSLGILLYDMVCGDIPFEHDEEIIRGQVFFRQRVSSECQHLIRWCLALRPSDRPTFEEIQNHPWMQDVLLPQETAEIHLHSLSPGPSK

SMILES | pIC50 ([1]; Pim-3 enzyme assay) | pIC50 ([2]; Homo sapiens) | pIC50 [3] | pIC50 ([4]; Homo sapiens, U2OS cells, Pim-1 transfected, read-out: U2OS Pim1_Cell_IC50) | pIC50 [5] | pIC50 [4, 6] | pIC50 [4, 7] | pIC50 [1] | pIC50 [2] | pIC50 ([4]; read-out: U2OS Pim1_Cell_IC50, U2OS cells, Pim-1 transfected)
Nc1nnc(-c2ccc3[nH]cc(-c4cccc(OC5CCCC5)n4)c3c2)s1 [Example 163, 5-(3-(6-(cyclopentyloxy)-2-pyridinyl)-1H-indol-5-yl)-1,3,4-thiadiazol-2-amine] | 8.34 | 5.16 | 7.83 | 6.32 | – | – | – | – | – | –
Nc1nnc(-c2ccc3[nH]cc(-c4cccc(N5CCCCC5)n4)c3c2)s1 [Example 172, 5-(3-(6-(1-piperidinyl)-2-pyridinyl)-1H-indol-5-yl)-1,3,4-thiadiazol-2-amine] | – | < 4.50 | 7.39 | – | 7.16 | 6.38 | – | – | – | –
Nc1nnc(-c2ccc3[nH]cc(-c4cncc(-c5ccc(Cl)cc5)n4)c3c2)o1 [Example 114, 5-(3-(6-(4-chlorophenyl)-2-pyrazinyl)-1H-indol-5-yl)-1,3,4-oxadiazol-2-amine] | – | < 4.50 | 7.90 | – | 7.60 | – | 6.86 | – | – | –
CC(C)Nc1nnc(-c2ccc3[nH]cc(-c4nccc(C(F)(F)F)n4)c3c2)o1 [Example 258, N-(1-methylethyl)-5-(3-(4-(trifluoromethyl)-2-pyrimidinyl)-1H-indol-5-yl)-1,3,4-oxadiazol-2-amine] | – | 5.43 | 7.86 | – | 7.60 | 6.64 | – | – | – | –
c1cc2[nH]cc(-c3cncc(C4CC4)n3)c2cc1-c1nnc(NC2COC2)o1 [Example 251, 5-(3-(6-cyclopropyl-2-pyrazinyl)-1H-indol-5-yl)-N-3-oxetanyl-1,3,4-oxadiazol-2-amine] | – | 5.70 | 8.49 | – | 8.23 | 6.97 | – | – | – | –
CC(C)Oc1cccc(-c2c[nH]c3ccc(-c4nnc(N[C@@H]5CCCNC5)s4)cc23)n1 [Example 35, (R)-5-(3-(6-Isopropoxypyridin-2-yl)-1H-indol-5-yl)-N-(piperidin-3-yl)-1,3,4-thiadiazol-2-amine 2,2,2-trifluoroacetate] | – | 4.96 | 8.03 | – | – | – | 5.94 | 8.74 | – | –
CN1CCCC(Nc2ccnc(-c3c[nH]c4ccc(-c5nnc(N)o5)cc34)n2)C1 (stereo not drawn) [Example 111, 2-(5-(5-amino-1,3,4-oxadiazol-2-yl)-1H-indol-3-yl)-N-(1-methyl-3-piperidinyl)-4-pyrimidinamine] | – | < 4.50 | 7.73 | – | 8.18 | < 4.50 | – | – | – | –
Nc1nnc(-c2ccc3[nH]cc(-c4cccc(OC5CCC5)n4)c3c2)s1 [Example 161, 5-(3-(6-(cyclobutyloxy)-2-pyridinyl)-1H-indol-5-yl)-1,3,4-thiadiazol-2-amine] | 8.53 | 5.46 | 7.96 | – | – | – | 6.69 | – | – | –
Nc1nnc(-c2ccc3[nH]cc(-c4nccc(OCC(F)(F)F)n4)c3c2)o1 [Example 110, 5-(3-(4-(2,2,2-trifluoroethoxy)-2-pyrimidinyl)-1H-indol-5-yl)-1,3,4-oxadiazol-2-amine] | – | 5.79 | 8.33 | – | 8.62 | 6.66 | – | – | – | –
c1cc(C2CC2)nc(-c2c[nH]c3ccc(-c4nnc(C5CC5)o4)cc23)n1 [Example 43, 2-cyclopropyl-5-(3-(4-cyclopropylpyrimidin-2-yl)-1H-indol-5-yl)-1,3,4-oxadiazole] | – | 5.47 | 8.12 | – | 8.36 | 6.61 | – | – | – | –
c1cc(C2CC2)nc(-c2c[nH]c3ccc(-c4nnc(NC5COC5)o4)cc23)n1 [Example 256, 5-(3-(4-cyclopropyl-2-pyrimidinyl)-1H-indol-5-yl)-N-3-oxetanyl-1,3,4-oxadiazol-2-amine] | 8.92 | 6.13 | 8.11 | – | – | – | 7.17 | – | – | –
CC1COCCN1c1nnc(-c2ccc3[nH]cc(-c4cncc(C5CC5)n4)c3c2)o1 (stereo in doubt) [Example 249, 3-(6-cyclopropyl-2-pyrazinyl)-5-(5-((3R)-3-methyl-4-morpholinyl)-1,3,4-oxadiazol-2-yl)-1H-indole] | – | – | 7.79 | – | 7.31 | – | – | – | < 4.50 | 6.43
COC[C@H]1CCCN1c1ccnc(-c2c[nH]c3ccc(-c4nnc(N)o4)cc23)n1 [Example 113, 5-(3-(4-((2R)-2-(methoxymethyl)-1-pyrrolidinyl)-2-pyrimidinyl)-1H-indol-5-yl)-1,3,4-oxadiazol-2-amine] | – | < 5.00 | 7.86 | – | 7.59 | 6.42 | – | – | – | –
CC(C)Nc1cncc(-c2c[nH]c3ccc(-c4nc(N)ns4)cc23)n1 [Example 64, 5-(3-(6-(isopropylamino)pyrazin-2-yl)-1H-indol-5-yl)-1,2,4-thiadiazol-3-amine] | – | < 5.00 | 8.37 | – | 7.23 | 6.70 | – | – | – | –
FC(F)(F)CNc1nnc(-c2ccc3[nH]cc(-c4nccc(C5CC5)n4)c3c2)o1 [Example 53, 5-(3-(4-cyclopropylpyrimidin-2-yl)-1H-indol-5-yl)-N-(2,2,2-trifluoroethyl)-1,3,4-oxadiazol-2-amine] | – | 6.32 | 9.39 | – | 9.20 | 7.46 | – | – | – | –
C[C@H]1COCCN1c1nnc(-c2ccc3[nH]cc(-c4cncc(C5CC5)n4)c3c2)o1 [Example 248, 3-(6-cyclopropyl-2-pyrazinyl)-5-(5-((3S)-3-methyl-4-morpholinyl)-1,3,4-oxadiazol-2-yl)-1H-indole] | – | < 4.50 | 7.86 | – | 7.68 | – | 6.72 | – | – | –
Oc1nnc(-c2ccc3[nH]cc(-c4cccc(N5CCOCC5)n4)c3c2)s1 [Example 29, 5-(3-(6-morpholinopyridin-2-yl)-1H-indol-5-yl)-1,3,4-thiadiazol-2-ol] | 7.54 | < 4.50 | 6.92 | – | – | – | 5.16 | – | – | –
c1cc(C2CC2)nc(-c2c[nH]c3ccc(-c4nnc(NC5CC5)o4)cc23)n1 [Example 257, N-cyclopropyl-5-(3-(4-cyclopropyl-2-pyrimidinyl)-1H-indol-5-yl)-1,3,4-oxadiazol-2-amine] | – | 6.03 | 8.70 | – | 8.85 | 7.00 | – | – | – | –
CC(C)Oc1cccc(-c2c[nH]c3ccc(-c4nnc(NC5CCCNC5)s4)cc23)n1 (stereo not drawn) [Example 32, 5-(3-(6-Isopropoxypyridin-2-yl)-1H-indol-5-yl)-N-(piperidin-3-yl)-1,3,4-thiadiazol-2-amine 2,2,2-trifluoroacetate] | – | 5.16 | – | – | – | – | 6.24 | 8.46 | – | –
c1cc2[nH]cc(-c3cncc(C4CC4)n3)c2cc1-c1nnc(C2CC2)o1 [Example 44, 2-Cyclopropyl-5-(3-(6-cyclopropylpyrazin-2-yl)-1H-indol-5-yl)-1,3,4-oxadiazole] | – | < 4.50 | 8.00 | – | 7.58 | 6.20 | – | – | – | –
Nc1nnc(-c2ccc3[nH]cc(-c4cncc(NC5CCCCC5)n4)c3c2)s1 [Example 208, 6-(5-(5-amino-1,3,4-thiadiazol-2-yl)-1H-indol-3-yl)-N-cyclohexyl-2-pyrazinamine] | – | 5.58 | 8.50 | – | 7.74 | – | 7.25 | – | – | –
CC(C)Oc1cccc(-c2c[nH]c3ccc(-c4nnc(N)s4)cc23)n1 [Example 157, 5-(3-(6-(1-methylethoxy)-2-pyridinyl)-1H-indol-5-yl)-1,3,4-thiadiazol-2-amine] | – | 5.65 | 8.11 | – | 8.00 | 6.97 | – | – | – | –

Reference: patent US9321756B2, “Azole compounds as PIM inhibitors” (priority 2011, dated 2016)
